Laboratory results taken from US20160315271A1, “ORGANIC TRANSISTOR, COMPOUND, ORGANIC SEMICONDUCTOR MATERIAL FOR NON-LIGHT-EMITTING ORGANIC SEMICONDUCTOR DEVICE, MATERIAL FOR ORGANIC TRANSISTOR, COATING SOLUTION FOR NON-LIGHT-EMITTING ORGANIC SEMICONDUCTOR DEVICE, AND ORGANIC SEMICONDUCTOR FILM FOR NON-LIGHT-EMITTING ORGANIC SEMICONDUCTOR DEVICE” (FUJIFILM Corporation, priority 2014, published 2016).

Assay: Solubility in toluene
[1] = 20 mg mixed with toluene (1 mL)
[2] = organic solvent or mixture, thermodynamic from solid

| SMILES | Solubility [1] | Solubility [2] [mg/mL] |
| --- | --- | --- |
| CCCCCCCCc1ccc(-c2cc3cc4ccc5cc6cc(-c7ccc(CCCCCCCC)s7)sc6cc5c4cc3s2)s1 [Compound 16] | A (Completely dissolved.) |  |
| CCCCCCCCCCCCc1cc2cc3ccc4cc5cc(CCCCCCCCCCCC)sc5cc4c3cc2s1 [Compound 5] | A (Completely dissolved.) |  |
| CCCCCCCCc1ccc(-c2cc3cc4ccc5cc6cc(-c7ccc(CCCCCCCC)cc7)sc6cc5c4cc3s2)cc1 [Compound 11] | A (Completely dissolved.) |  |
| CCCCCCCCc1csc(-c2cc3cc4ccc5cc6cc(-c7cc(CCCCCCCC)cs7)sc6cc5c4cc3s2)c1 [Compound 24] | A (Completely dissolved.) |  |
| Cc1c(C)n(-c2ccccc2)c2c1ccc1c3ccc4c(C)c(C)n(-c5ccccc5)c4c3ccc12 [compound 1, reference compound] |  | < 20 |
| c1ccc(-n2c3ccccc3c3cc4ccc5cc6c7ccccc7n(-c7ccccc7)c6cc5c4cc32)cc1 [compound 2, reference compound] |  | < 20 |
| CCCCCCCCc1cc2cc3ccc4cc5cc(CCCCCCCC)n(C)c5cc4c3cc2n1C [Compound 3] | A (Completely dissolved.) |  |
